Test results as given in ChEMBL document CHEMBL1764992, “RNA-binding and viral reverse transcriptase inhibitory activity of a novel cationic diamino acid-based peptide” (J Med Chem, 2011).
Active and inactive are the calls of the source. No cut-off for these calls is given here.

Experiments:
Nucleic Acid [1] = assay: Binding affinity to dT12 DNA by circular dichroism spectra analysis; assay type: nucleic-acid assay
Nucleic Acid [2] = assay: Binding affinity to poly(U) RNA by circular dichroism spectra analysis; assay type: nucleic-acid assay
Nucleic Acid [3] = assay: Binding affinity to poly(U) RNA by ultraviolet spectra analysis; assay type: nucleic-acid assay
[4] = target: Human immunodeficiency virus type 1 reverse transcriptase (Human immunodeficiency virus 1) (UniProt Q72547); assay: Inhibition of HIV1 reverse transcriptase at 0.5 to 1 ug after 1 hr by RT-PCR analysis relative to control
Nucleic Acid [5] = assay: Binding affinity to dT12 DNA by ultraviolet spectra analysis; assay type: nucleic-acid assay
[6] = system: Moloney murine leukemia virus; assay: Inhibition of Moloney murine leukemia virus reverse transcriptase at 0.5 ug after 1 hr by RT-PCR analysis relative to control
[7] = system: Moloney murine leukemia virus; assay: Inhibition of Moloney murine leukemia virus reverse transcriptase at 1 ug after 1 hr by RT-PCR analysis relative to control

Activity (Nucleic Acid [1]): inactive | Activity (Nucleic Acid [2]): Active | Activity (Nucleic Acid [3]): Active | inhibition [4]: 60% | Activity (Nucleic Acid [5]): inactive | inhibition [6]: 30% | inhibition [7]: 18%
Compound: Cc1cn(CC(=O)NCCCC[C@H](N)C(=O)NCC[C@H](N)C(=O)NCCCC[C@H](N)C(=O)NCC[C@H](N)C(=O)NCCCC[C@H](N)C(=O)NCC[C@H](N)C(=O)NCCCC[C@H](N)C(=O)NCC[C@H](N)C(=O)NCCCC[C@H](N)C(=O)NCC[C@H](N)C(=O)NCCCC[C@H](N)C(=O)NCC[C@H](N)C(=O)NCCCC[C@H](N)C(=O)NCC[C@H](N)C(=O)NCCCC[C@H](N)C(=O)NCC[C@H](N)C(=O)NCCCC[C@H](N)C(N)=O)c(=O)[nH]c1=O
